Measured values taken from patent US20130157261A1, “Compositions and Methods for Quantitative Histology, Calibration of Images in Fluorescence Microscopy, and ddTUNEL Analyses” (The Methodist Hospital Research Institute, priority 2011, published 2013).

Key:
[1] = test system: normal human astrocytes (NHA)
Procedure: (§1) Normal human astrocytes (NHA) were obtained from Lonza (Walkersville, Md., USA) and grown subject to their recommendations. NHA were grown to confluency in Astrocyte Cell Basal Medium supplemented with 3% FBS, Glutamine, Insulin, fhEGF, GA-1000 and ascorbic acid in 16-well Lab-Tek slide chambers (Nalge Nunc, Rochester, N.Y., USA), in a total volume of 240 μL.
NHA were incubated for 1 hour with probes before fixation. Fixation in buffered paraformaldehyde (PFA) was performed in two stages. Firstly, a […] of ice-cold 8% PFA was added to each well, then gently aspirated and the wells were twice washed with ice-cold 2% PFA and then allowed to completely fix at 4° C. After fixation, cells were washed twice in 1×PBS (Thermo Fisher Scientific, Rockford, Ill., USA). The tanks were then removed from the slides, the well area covered with Fluoromount-G (SouthernBiotech, Ill., USA), cover-slipped and sealed with nail varnish.
DNA was visualized using 1 μM Hoechst 33258 (Cat. No. H1398), mitochondrial membrane potential with 500 nM Mitotracker® Red (Dagda et al., 2009) (Cat. No. M22425), hydrogen peroxide using 5 μM H2DCFAM (Whiteman et al., 2009; Setsukinai et al., 2003) (Cat. No. D399), mitochondrial superoxide generation with 5 μM MitoSOX™ Red (Abramov et al., 2010) (Cat. No. M36008), HO. was assayed using 5 μM hydroxyphenyl fluorescein (Setsukinai et al., 2003) (HPF) (Cat. No. H36004), with reagents obtained from Molecular Probes (Eugene, Oreg., USA).
(§2) 3% FCS was present in the NHA medium throughout the time-course. To generate the time-course shown in FIG. 17A and FIG. 17B, NHA were exposed to Mitotracker, H2DCFAM and Hoechst at t=0.

[2] = test system: normal human astrocytes (NHA); conditions: 14.4 μM thimerosal, 1 hr, vs control (FIG. 21)
Procedure: as §1
(§3) Fixed cells were permeabilized using 1×PBS with 0.1% Triton X-100®. Hydrazine reactive aldehyde/ketones were labeled using 225 μM Biotin-XX hydrazide (Hensley, 2009) (Cat. No. B2600) and visualized using Texas Red-Avidin (Cat. No. A820). The activity of Caspase-3 in fixed, 0.1% Triton-permeabilized cells was measured using the R110-EnzChek® Assay Kit (Molecular Probes, Cat. No. E13184), and incubating cells for 1 h at 37° C. (Scott et al., 2003).
as §2

[3] = test system: normal human astrocytes (NHA); remark: listed apart in the source
Source text: as §2

[4] = test system: Caspase-3; conditions: NHA, 14.4 μM thimerosal, 1 hr, vs control
Procedure: as §3, §2

[5] = test system: normal human astrocytes (NHA); conditions: 14.4 μM thimerosal
Procedure: NHA were incubated for 1 hour with probes before fixation. Fixation in buffered paraformaldehyde (PFA) was performed in two stages. Firstly, a 50-4 aliquot of ice-cold 8% PFA was added to each well, then gently aspirated and the wells were twice washed with ice-cold 2% PFA and then allowed to completely fix at 4° C. After fixation, cells were washed twice in 1×PBS (Thermo Fisher Scientific, Rockford, Ill., USA). The tanks were then removed from the slides, the well area covered with Fluoromount-G (SouthernBiotech, Ill., USA), cover-slipped and sealed with nail varnish.

[6] = 14.4 μM thimerosal, 1 hr, vs control (FIG. 21)

In the case of C[CH2][Hg][S]c1ccccc1C(=O)[O-].[Na+] [Thimerosal], the “increase in HO. greater than the increase in superoxide generation” value ([1]; 14.4 μM thimerosal, 1 hr) is reported as “≈ 80%”, the “increase in superoxide generation per cell” value ([1]; 14.4 μM thimerosal, 1 hr) is reported as 90% and the “more HO. generation per superoxide” value ([1]; 14.4 μM thimerosal, 1 hr, deconvolution of signals) is reported as 60%. The “increase in HO.” value [1, 6] was 300%, the “increase in internal mitochondrial steady state level of superoxide” value [1, 6] was “≈ 70%” and the “thimerosal concentration at which a loss of mitochondrial signal and of DCF was observed” value ([1]; 60 min, 0-14.4 μM) was > 7.2 µM. For the same molecule, the “increase in cellular hydrazine reactive carbonyls (matches superoxide increase)” value [2] was “≈ 70%”, the “increase in 3′OH DNA nicks” value [3, 6] was 300% and the “increase in levels of mitochondrial DNA breaks” value [3, 6] was 240%. For the same molecule, the “increase in levels of oxidized bases/apurinic or apyrimidinic sites” value [3, 6] was 460%, the “increase in levels of oxidant damaged mitochondrial DNA bases” value ([3]; Thimerosal treatment) was “five-fold” and the “increase in Caspase-3 activity” value [4] was “five-fold”. For the same molecule, the “time at which levels of cellular DCF began to fall” value [5] was > 40 min, the “amount of ROS (DCF) generated by mitochondria vs control mitochondria” value ([5]; 60 min, fit of intensity profiles) was “four times” and the “increase in ROS (DCF)” value ([5]; 60 min, vs control) was “two-fold”. The “increase in steady-state production of reactive oxidants (H2DCF-AM)” value ([5]; 1 hr, vs control) was 200%.
